Measured values from patent US9351963B2, “Defensin-like molecules as novel antimicrobial agents” (UNIVERSITY OF MARYLAND, BALTIMORE, priority 2010, dated 2016).

How the values were obtained:
S. aureus ATCC 29213 = experiment: Murine peritoneal sepsis model; format: in vivo, C57BL/6J mice; conditions: mouse, in vivo
Procedure: Adult C57BL/6J mice (˜18 grams, 8-10 weeks old) were used for all experiments. Mice were obtained from the Jackson Laboratory (Bar Harbour, Me., USA) and housed in the IHV SPC animal core facility. Mice were fed standard chow (Harlan Laboratories) and water ad libitum. To assess the protective potency of defensin mimetic BAS00127538, groups of 5 mice were inoculated intraperitoneally ˜10^7 CFU/mL of S. aureus ATCC 29213 in 500 μL saline solution/25% DMSO plus 4.5% (w/v) porcine gastric mucin (Sigma Chemical Co., St Louis, Mo.). Infected animals (n=5) were subsequently treated by intra-peritoneal injection 1 and 4 hours post-infection with 2.5 mg/kg of compound in 100 μL sterile saline solution plus 25% DMSO (V/V), vancomycin/lysostaphin (5 mg/kg, saline solution/25% DMSO) or vehicle (saline solution/25% DMSO) as positive and negative controls respectively. Animals were closely observed during a period of 24 hours and mice that show signs of severe sepsis were humanely euthanized. Blood samples were collected by retro-orbital puncture at the indicated intervals post-infection using lithium-heparin polystyrene tubes to prevent coagulation. Spleens were harvested aseptically, weighed and homogenized in 500 μl of sterile saline solution using an IKA T10 basic disperser (IKA, Wilmington N.C.). Whole blood samples and spleen homogenates were serially diluted and plated onto LB agar plates. Bacterial counts were determined following 24 h incubation at 37° C. and expressed as CFU per milliliter for blood and CFU per gram for spleen.
Next, a murine model for sepsis was established to evaluate the efficacy of the lead defensin mimetics as antibiotic agents in vivo. […] Mice (n=5) were inoculated intraperitoneally with S. aureus 29213 and treated 1 h and 4 h post-infection with compound BAS00127538 at 2.5 mg/kg intraperitoneally Animals were monitored for survival and blood and spleen samples were collected. Bacterial counts were determined and compared to control treatment with vancomycin/lysostaphin as measures of efficacy (FIG. 6).

[1] = tested on: Staphylococcus aureus ATCC 29213; experiment: Antagonization assay of antibacterial activity against S. aureus; format: cell-based; conditions: for Effect of pre-incubation with D-Ala (Diacetyl-Lys-D-Ala-D-Ala) on killing of S. aureus / Effect of pre-incubation with D-Lac (diacetyl-Lys-D-ala-D-Lac) on killing of S. aureus: 1:200 molar ratio, 30 min
Procedure: Antagonization of the antibacterial activity of defensins against Staphylococcus aureus ATCC 29213 was carried out in a 96-well turbidimetric assay essentially as described previously (Erickson et al.). Defensins (50 μM final concentration) were pre-incubated with the following compounds for 30 min at RT: 1) 3-Lipid II at 1:1, 1:2.5 and 1:5 defensin:Lipid II molar ratios; or; 2) DiAcetyl-Lys-D-Alanine-D-Alanine and DiAcetyl-Lys-D-Alanine-D-Lac at 1:200 molar ratios. Additionally, vancomycin (500 μM) was pre-incubated separately with D-Ala and D-Lac at a 1:200 molar ratio. Following incubation, solutions were diluted two-fold in ten steps and bacteria were added. Bacterial cells were exposed to HNP1 or vancomycin for 30 min and to HD-5 for 60 min in all studies. Defensin activity was neutralized by the addition of Mueller Hinton broth. Bacterial growth was monitored for 12 hours and data were analyzed as described (Erickson et al.).
Next, the inventors examined whether the antibacterial activity of HNP-1 could be antagonized by soluble Lipid II as a measure for functional interaction. HNP-1 (50 μM) was pre-incubated with 3-Lipid II at varying molar ratios and killing of S. aureus was determined using the vCC protocol (Erickson et al.) (FIG. 3). […] Survival curves of S. aureus ATCC 29213 exposed to HNP1 (at concentrations varying two-fold from 50 to 1.25 μM). Defensin peptide was pre-incubated with 3-Lipid II at varying molar ratios for 30 min prior to addition of bacteria. Bacteria were subsequently exposed to HNP-1 for 30 min. Each curve is the mean of two separate experiments (±S.D.). Points scored as zero survival could not be plotted.
The D-Ala-D-Ala motif in the pentapeptide is the predominant binding site for vancomycin, a drug of “last resort” for many multi-drug resistant Gram-positive infections. To examine if the interaction of HNP-1 with Lipid II overlaps with the vancomycin binding site, antagonization assays were performed. Diacetyl-Lys-D-Ala-D-Ala (D-Ala) was used as […] and the non-specific peptide diacetyl-Lys-D-ala-D-Lac (D-Lac) as a control. Both vancomycin and HNP-1 were pre-incubated at a 1:200 molar ratio with both compounds for 30 min, similar to experiments with soluble Lipid II (FIG. 3). Subsequently, the inventors determined any antagonizing effects on the killing of S. aureus (FIG. 4). […] In particular, survival curves of S. aureus ATCC 29213 exposed to HNP1 (upper panel) at concentrations varying two-fold from 50 to 1.25 μM or to vancomycin (lower panel) at concentrations varying two-fold from 2 to 0.0125 μM. HNP-1 and vancomycin were pre-incubated with D-ala or D-lac at a 1:200 molar ratio for 30 min prior to addition of bacteria. Bacteria were subsequently exposed to HNP-1 or vancomycin for 30 min. Each curve is the mean of two separate experiments (±S.D.). Points scored as zero survival could not be plotted.

[2] = Surface Plasmon Resonance binding to immobilized 3-Lipid II (BIAcore); conditions: SPR, 10 μM, room temperature, 40 RUs 3-Lipid II
Procedure: Short-chain water-soluble Lipid II containing a lipid tail of three isoprene units was generated and purified essentially as described (Breukink, E., van Heusden, H. E., Vollmerhaus, P. J., Swiezewska, E., Brunner, L., Walker, S., Heck, A. J., and de Kruijff, B. (2003) J Biol Chem 278, 19898-19903). Typically, M. flavus vesicles (120 μmol lipid-Pi) were incubated together with 500 μmol UDP-GlcNAc, 500 μmol UDP-MurNAC-pentapeptide and 400 μmol farnesyl phosphate (3-P) in 100 mM Tris-HCl pH 8.0, 5 mM MgCl2. The incubation lasted two hours at room temperature for 3-P. The synthesis of 3-Lipid II was followed using RP-8 reversed phase TLC (Merck) developed in 75% methanol. For purification, the membranes were removed by centrifugation at 40,000×g and the supernatant was collected and loaded on a C18 HPLC column and eluted with a linear gradient from 50 mM ammonium bicarbonate to 100% methanol in 30 minutes. Farnesyl-Lipid II (3-Lipid II) eluted at approximately 60% methanol. Its identity was confirmed by mass spectroscopy.
Surface Plasmon Resonance binding experiments were carried out on a BIAcore T100 system (BIAcore Inc., Piscataway, N.Y.) at 25° C. The assay buffer was 10 mM HEPES, 150 mM NaCl, 0.05% surfactant P20, pH 7.4 (±3 mM EDTA) supplemented with 10% DMSO. […] For initial determination of binding, defensin mimetics were introduced into the flow-cells (30 μl/min) in the running buffer at 10 μM. Resonance signals were corrected for nonspecific binding by subtracting the background of the control flow-cell. After each analysis, the sensor chip surfaces were regenerated with 50 mM NaOH for 30 s at a flow rate 100 μl/min, and equilibrated with the buffer prior to next injection. For binding kinetics studies, binding isotherms were analyzed with manufacturer-supplied software for BIAcore T100.

[3] = tested on: Escherichia coli ATCC 25922; experiment: 96-well turbidimetric antibacterial killing assay, E. coli; format: cell-based; conditions: E. coli ATCC 25922, 120 min exposure
Procedure: The antibacterial activity of defensin mimetics against Staphylococcus aureus ATCC 29213 and Escherichia coli 25922 was carried out in a 96-well turbidimetric assay essentially as described (Ericksen, B., Wu, Z., Lu, W., and Lehrer, R. I. (2005) Antimicrob Agents Chemother 49, 269-275) with the following modifications: compounds were exposed for 30 min to […] prior to addition of […] in 10 mM phosphate buffer containing 5% DMSO. Bacterial growth was monitored for 12 hours and data were analyzed as described (Ericksen, et al). Determination of MICs was performed by Micromyx, LLC (Kalamazoo, Mich.) according to CLSI standards (CLSI. (2009) Methods for Dilution Antimicrobial Susceptibility Tests for Bacteria That Grow Aerobically; Approved Standard—Eighth Edition.)
The inventors have previously reported on the antibacterial activity of HNP1 and all of its structurally uncompromised single alanine mutants against S. aureus (Wei, G., Pazgier, M., de Leeuw, E., Rajabi, M., Li, J., Zou, G., Jung, G., Yuan, W., Lu, W. Y., Lehrer, R. I., and Lu, W. J Biol Chem 285, 16275-16285). […] If these residues are indeed important for Lipid II binding, one would expect that replacement by alanine will not affect killing of Gram-negative bacteria. […] In particular, FIG. 12 depicts killing of E. coli by HNP-1 Lipid II single alanine mutants. Survival curves of E. coli ATCC 25922 exposed to HNP-1 or HNP-1 single alanine mutants at concentrations varying two-fold from […]. Bacteria were exposed to defensin peptides for 120 min. Each curve is the mean of two separate experiments (±S.D.). Points scored as zero survival could not be plotted.

[4] = tested on: Staphylococcus aureus ATCC 29213; conditions: previously reported (Wei et al., J Biol Chem 285); cited from earlier work

## c1ccc(-c2nc(N(c3ccccc3)c3ccccc3)s[n+]2-c2ccccc2)cc1 [Compound 1492-0330, 5-(diphenylamino)-2,3-diphenyl-1,2$1^5,4-thiadiazol-2-ylium]
S. aureus ATCC 29213
  Efficacy in vivo in a murine model for sepsis: proven effective

## CN(C)c1ccc(/C=C/c2cc(C(C)(C)C)[o+]c(C(C)(C)C)c2)cc1 [Compound 1493-0289, 2,6-di-tert-butyl-4-[(E)-2-[4-(dimethylamino)phenyl]ethenyl]-1$1^4-pyran-1-ylium]
S. aureus ATCC 29213
  Efficacy in vivo in a murine model for sepsis: proven effective

## Oc1ccccc1Oc1c(F)c(F)c(-c2c(F)c(F)c(Oc3ccccc3O)c(F)c2F)c(F)c1F [Compound 1611-0203, 2-{2,3,5,6-tetrafluoro-4-[2,3,5,6-tetrafluoro-4-(2-hydroxyphenoxy)phenyl]phenoxy}phenol]
S. aureus ATCC 29213
  Efficacy in vivo in a murine model for sepsis: proven effective

## CC[n+]1c(/C=C2C=C(/C=C/N(C)c3ccccc3)CC(C)(C)C/2)sc2ccccc21 [Compound 4090-1978, 2-{[(1E)-5,5-dimethyl-3-[(E)-2-[methyl(phenyl)amino]ethenyl]cyclohex-2-en-1-ylidene]methyl}-3-ethyl-1,3-benzothiazol-3-ium]
S. aureus ATCC 29213
  Efficacy in vivo in a murine model for sepsis: proven effective

## CC[n+]1c(/C=C2C=C(/C=C/C(C)=C\N(C)C)CC(C)(C)C/2)sc2ccccc21 [Compound 4090-1979, 2-{[(1E)-3-[(1E,3Z)-4-(dimethylamino)-3-methylbuta-1,3-dien-1-yl]-5,5-dimethylcyclohex-2-en-1-ylidene]methyl}-3-ethyl-1,3-benzothiazol-3-ium]
S. aureus ATCC 29213
  Efficacy in vivo in a murine model for sepsis: proven effective

## CCCCC[n+]1c(/C=C2\Sc3cc(NC(C)=O)ccc3N2CC)ccc2ccccc21 [Compound 4890-0291, N-[(2Z)-3-ethyl-2-[(1-pentylquinolin-1-ium-2-yl)methylidene]-1,3-benzothiazol-6-yl]acetamide]
S. aureus ATCC 29213
  Efficacy in vivo in a murine model for sepsis: proven effective

## CN[C@H](CC(C)C)C(=O)N[C@H]1C(=O)N[C@@H](CC(N)=O)C(=O)N[C@H]2C(=O)N[C@H]3C(=O)N[C@H](C(=O)N[C@H](C(=O)O)c4cc(O)cc(O)c4-c4cc3ccc4O)[C@H](O)c3ccc(c(Cl)c3)Oc3cc2cc(c3O[C@@H]2O[C@H](CO)[C@@H](O)[C@H](O)[C@H]2O[C@H]2C[C@](C)(N)[C@H](O)[C@H](C)O2)Oc2ccc(cc2Cl)[C@H]1O [Vancomycin, vancomycin]
[1]
  Effect of pre-incubation with D-Ala (Diacetyl-Lys-D-Ala-D-Ala) on killing of S. aureus: specifically inhibited the killing
  Effect of pre-incubation with D-Lac (diacetyl-Lys-D-ala-D-Lac) on killing of S. aureus: not altered
[1]; without antagonist, 30 min exposure
  Killing of S. aureus: very effectively

## Arg5: HNP-1 single alanine mutant, Arg5 replaced by alanine
[2]
  Binding of HNP-1 single alanine mutants to Lipid II compared to wild-type HNP-1: did not affect binding

## Arg15: HNP-1 single alanine mutant, Arg15 replaced by alanine
[3]
  Bactericidal activity against E. coli relative to wild-type HNP-1: exception
[2]
  Binding of HNP-1 single alanine mutants to Lipid II compared to wild-type HNP-1: significant reduction of binding
[4]
  Killing of S. aureus by HNP-1 single alanine mutants: severely compromised

## Gly23: HNP-1 single alanine mutant, Gly23 replaced by alanine
[2]
  Binding of HNP-1 single alanine mutants to Lipid II compared to wild-type HNP-1: did not affect binding

## HNP-1 R24A mutant: HNP-1 single alanine mutant, Arg24 replaced by alanine
[2]
  Binding of HNP-1 single alanine mutants to Lipid II compared to wild-type HNP-1: maintained significant binding

## HNP-1: α-defensin Human Neutrophil Peptide 1, chemically synthesized, wild-type
[1]; 1:1 molar ratio, 30 min pre-incubation, S. aureus
  Bactericidal activity after pre-incubation with 3-Lipid II: reduced by one order of magnitude
[1]
  Effect of pre-incubation with D-Ala (Diacetyl-Lys-D-Ala-D-Ala) on killing of S. aureus: not competitively inhibited
  Effect of pre-incubation with D-Lac (diacetyl-Lys-D-ala-D-Lac) on killing of S. aureus: not competitively inhibited

## Ile10: HNP-1 single alanine mutant, Ile10 replaced by alanine
[2]
  Binding of HNP-1 single alanine mutants to Lipid II compared to wild-type HNP-1: did not affect binding
